Measured values: patent US20260249027A1, “METERED DOSE INHALERS AND HIGH-DOSE SUSPENSIONS” (Kindeva Drug Delivery L.P., priority 2023, published 2026)

What was measured:
[1] = Through life dose consistency of mometasone furoate pMDI suspensions (USP <601>, apparatus A); format: physicochemical
Protocol: (§1) In the following examples, dose consistency was determined by in vitro measurement of single actuation dose content at start, middle and end of pMDI unit life in line with U.S. Pharmacopeia (USP)<601>, using a flow rate of 28.3 L/min and apparatus A. Aerodynamic particle size distribution of the pMDI suspension aerosols was measured at start of unit life in line with U.S. Pharmacopeia (USP)<601> using a Next Generation impactor without pre-separator (apparatus 6) and a flow rate of 30 L/min.
(§2) Suspensions of micronized mometasone furoate in HFA-152a or HFO-1234ze(E) were prepared. A first set of suspensions included no ethanol. A second set of suspensions included 2% ethanol by weight. Each suspension included an amount of mometasone furoate to provide a nominal delivered dose (ex-valve) of 0.5 mg/actuation (10.0 mg/mL) or 1.0 mg/actuation (20.0 mg/mL). Two further suspensions including no ethanol were prepared which included an amount of mometasone furoate to provide a nominal delivered dose (ex-valve) of 2.0 mg/actuation (40.0 mg/mL).
(§3) In total, ten suspension pMDI formulations were prepared in triplicate with sufficient fill weight to provide 60 actuations. Each suspension was filled into Kindeva FEP coated canisters, crimped with a Kindeva 50-μL valve. Each pMDI unit was sonicated for at least 10 minutes to disperse the suspended drug and tested with a Kindeva actuator having an exit orifice diameter (EOD) of 0.4 mm.
The through-life (TL) dose consistency of each pMDI unit was determined by measuring the mean ex-actuator delivered dose in micrograms of mometasone furoate (N=3) at the start of life (SoL), middle of life (MOL) and end of life (EoL) of the unit.

[2] = Aerodynamic particle size measurement of mometasone furoate pMDI suspensions (Next Generation impactor); format: physicochemical
From the text: In general, aerosols with mass median aerodynamic diameters (MMAD) of at least 1 μm but less than 5 μm in size are suitable for effective deep lung deposition for therapeutic effect. Herein, fine particle fraction (FPF) is defined as the percentage of the ex-actuator delivered API having a MMAD of less than 5 μm when tested in vitro. Herein, “ex-actuator” delivered dose is used to describe the amount of API delivered past the actuator of a pMDI. Therefore, an aerosol with a high FPF is typically suitable for deep lung deposition.
as §1, §2
as §3, with “0.4 mm or 0.25” for “0.4”
The mass median aerodynamic diameter (MMAD) and fine particle fraction (FPF) of each pMDI unit were measured by Next Generation cascade impaction (N=3) for each pMDI suspension.

[3] = nominal ex-valve 0.5 mg/act, HFA-152a
[4] = nominal ex-valve 0.5 mg/act, HFA-152a/2% EtOH (w/w)
[5] = nominal ex-valve 0.5 mg/act, HFO-1234ze(E)
[6] = nominal ex-valve 0.5 mg/act, HFO-1234ze(E)/2% EtOH (w/w)
[7] = nominal ex-valve 1.0 mg/act, HFA-152a
[8] = nominal ex-valve 1.0 mg/act, HFA-152a/2% EtOH (w/w)
[9] = nominal ex-valve 1.0 mg/act, HFO-1234ze(E)
[10] = nominal ex-valve 1.0 mg/act, HFO-1234ze(E)/2% EtOH (w/w)
[11] = nominal ex-valve 2.0 mg/act, HFA-152a
[12] = nominal ex-valve 2.0 mg/act, HFO-1234ze(E)
[13] = nominal ex-valve 0.5 mg/act, HFA-152a/2% EtOH (w/w), actuator exit orifice diameter 0.4 mm
[14] = nominal ex-valve 0.5 mg/act, HFA-152a, actuator exit orifice diameter 0.4 mm
[15] = nominal ex-valve 0.5 mg/act, HFO-1234ze(E)/2% EtOH (w/w), actuator exit orifice diameter 0.25 mm
[16] = nominal ex-valve 0.5 mg/act, HFO-1234ze(E)/2% EtOH (w/w), actuator exit orifice diameter 0.4 mm
[17] = nominal ex-valve 0.5 mg/act, HFO-1234ze(E), actuator exit orifice diameter 0.25 mm
[18] = nominal ex-valve 0.5 mg/act, HFO-1234ze(E), actuator exit orifice diameter 0.4 mm
[19] = nominal ex-valve 1.0 mg/act, HFA-152a/2% EtOH (w/w), actuator exit orifice diameter 0.25 mm
[20] = nominal ex-valve 1.0 mg/act, HFA-152a/2% EtOH (w/w), actuator exit orifice diameter 0.4 mm
[21] = nominal ex-valve 1.0 mg/act, HFA-152a, actuator exit orifice diameter 0.25 mm
[22] = nominal ex-valve 1.0 mg/act, HFA-152a, actuator exit orifice diameter 0.4 mm
[23] = nominal ex-valve 1.0 mg/act, HFO-1234ze(E)/2% EtOH (w/w), actuator exit orifice diameter 0.25 mm
[24] = nominal ex-valve 1.0 mg/act, HFO-1234ze(E)/2% EtOH (w/w), actuator exit orifice diameter 0.4 mm
[25] = nominal ex-valve 1.0 mg/act, HFO-1234ze(E), actuator exit orifice diameter 0.25 mm
[26] = nominal ex-valve 1.0 mg/act, HFO-1234ze(E), actuator exit orifice diameter 0.4 mm
[27] = nominal ex-valve 2.0 mg/act, HFA-152a, actuator exit orifice diameter 0.4 mm
[28] = nominal ex-valve 2.0 mg/act, HFO-1234ze(E), actuator exit orifice diameter 0.4 mm

effect of addition of ethanol on through unit life ex-actuator delivered dose consistency ([1]; 2% ethanol by weight, HFA-152a or HFO-1234ze(E)): did not always substantially improve
through unit life ex-actuator delivered dose consistency ([1]; HFA-152a or HFO-1234ze(E) with and without 2% ethanol by weight): relatively consistent
EoL mean delivered dose [1, 3]: 433.2 μg/act
MoL mean delivered dose [1, 3]: 433.8 μg/act
SoL mean delivered dose [1, 3]: 457.7 μg/act
TL mean delivered dose [1, 3]: 441.6 μg/act
EoL mean delivered dose [1, 4]: 450.9 μg/act
MoL mean delivered dose [1, 4]: 427.3 μg/act
SoL mean delivered dose [1, 4]: 408.9 μg/act
TL mean delivered dose [1, 4]: 429.1 μg/act
EoL mean delivered dose [1, 5]: 430.8 μg/act
MoL mean delivered dose [1, 5]: 434.7 μg/act
SoL mean delivered dose [1, 5]: 457.5 μg/act
TL mean delivered dose [1, 5]: 441.0 μg/act
EoL mean delivered dose [1, 6]: 465.7 μg/act
MoL mean delivered dose [1, 6]: 453.1 μg/act
SoL mean delivered dose [1, 6]: 433.9 μg/act
TL mean delivered dose [1, 6]: 450.9 μg/act
EoL mean delivered dose [1, 7]: 705.6 μg/act
MoL mean delivered dose [1, 7]: 1018.3 μg/act
SoL mean delivered dose [1, 7]: 1087.9 μg/act
TL mean delivered dose [1, 7]: 937.3 μg/act
EoL mean delivered dose [1, 8]: 759.7 μg/act
MoL mean delivered dose [1, 8]: 936.3 μg/act
SoL mean delivered dose [1, 8]: 906.5 μg/act
TL mean delivered dose [1, 8]: 867.5 μg/act
EoL mean delivered dose [1, 9]: 934.4 μg/act
MoL mean delivered dose [1, 9]: 931.9 μg/act
SoL mean delivered dose [1, 9]: 752.4 μg/act
TL mean delivered dose [1, 9]: 855.3 μg/act
EoL mean delivered dose [1, 10]: 848.1 μg/act
MoL mean delivered dose [1, 10]: 1003.4 μg/act
SoL mean delivered dose [1, 10]: 852.6 μg/act
TL mean delivered dose [1, 10]: 901.4 μg/act
EoL mean delivered dose [1, 11]: 1613.8 μg/act
MoL mean delivered dose [1, 11]: 1771.5 μg/act
SoL mean delivered dose [1, 11]: 1815.1 μg/act
TL mean delivered dose [1, 11]: 1733.4 μg/act
EoL mean delivered dose [1, 12]: 1837.0 μg/act
MoL mean delivered dose [1, 12]: 1725.9 μg/act
SoL mean delivered dose [1, 12]: 1755.0 μg/act
TL mean delivered dose [1, 12]: 1772.6 μg/act
FPF with actuator EOD 0.25 mm compared with EOD 0.4 mm ([2]; 0.5 and 1.0 mg/actuation in HFO-1234ze(E), 1.0 mg/actuation in HFA-152a): consistently greater FPFs
MMAD values of aerosols, suitability ([2]; HFA-152a or HFO-1234ze(E), with and without ethanol, in-vitro): in an appropriate respirable range
FPF without ethanol compared with corresponding suspensions with 2% ethanol by weight ([2]; HFA-152a or HFO-1234ze(E), all nominal doses): generally produced greater FPFs
Mean FPF [2, 13]: 34.0%
Mean MMAD [2, 13]: 3.55 μm
Mean FPF [2, 14]: 37.5%
Mean MMAD [2, 14]: 3.56 μm
Mean FPF [2, 15]: 55.3%
Mean MMAD [2, 15]: 3.70 μm
Mean FPF [2, 16]: 39.0%
Mean MMAD [2, 16]: 3.70 μm
Mean FPF [2, 17]: 66.6%
Mean MMAD [2, 17]: 3.41 μm
Mean FPF [2, 18]: 49.8%
Mean MMAD [2, 18]: 3.36 μm
Mean FPF [2, 19]: 45.3%
Mean MMAD [2, 19]: 3.91 μm
Mean FPF [2, 20]: 31.1%
Mean MMAD [2, 20]: 3.90 μm
Mean FPF [2, 21]: 49.1%
Mean MMAD [2, 21]: 3.75 μm
Mean FPF [2, 22]: 29.4%
Mean MMAD [2, 22]: 4.13 μm
Mean FPF [2, 23]: 52.5%
Mean MMAD [2, 23]: 3.84 μm
Mean FPF [2, 24]: 31.8%
Mean MMAD [2, 24]: 4.01 μm
Mean FPF [2, 25]: 58.8%
Mean MMAD [2, 25]: 3.61 μm
Mean FPF [2, 26]: 39.5%
Mean MMAD [2, 26]: 3.69 μm
Mean FPF [2, 27]: 19.5%
Mean MMAD [2, 27]: 5.09 μm
Mean FPF [2, 28]: 22.5%
Mean MMAD [2, 28]: 4.87 μm
Structure (SMILES): C[C@@H]1C[C@H]2[C@@H]3CCC4=CC(=O)C=C[C@]4(C)[C@@]3(Cl)[C@@H](O)C[C@]2(C)[C@@]1(OC(=O)c1ccco1)C(=O)CCl [mometasone furoate]
FPF and MMAD in HFO-1234ze(E) compared with corresponding suspensions in HFA-152a ([2]; with or without ethanol): consistently produced greater FPFs and generally smaller MMADs
